Laboratory results: patent US11648381B2, “Thermally controlled residence devices” (Massachusetts Institute of Technology, priority 2018, dated 2023)

Assays:
[1] = in vitro drug release from drug-polymer matrices in simulated gastric fluid; type: physicochemical; settings: addition of water soluble polymers such as PEG 3350 and Kolliphor P 407 to the polymer matrix; SGF with 5% (w/v) Tween 20
Procedure: To perform the release study, drug-polymer matrices ( 1 cm in length) were incubated with 50 ml of the respective release medium in a 37° C. incubator shaker at 50 rpm. At various times, 1 ml of the release medium was collected and stored at -20° C. until further analysis. The remaining medium was discarded, and the arms were incubated with fresh medium. For measuring drug concentrations in the release medium, all specimens (beam-like arms) were thawed, centrifuged at 1500 g for 10 min, and analyzed using high-performance liquid chromatography (HPLC). Depending on the drug used, the links had excipients and elasticizers added to enhance the drug release and mechanical properties, respectively. For both moxifloxacin ([…], Inc) and carbamazepine (Ark Pharm, Inc), poly(ethylene glycol) (PEG) (molecular weight-3350 Da, Spectrum Corp.), Kolliphor® P 407 (BASF), and EUDRAGIT® E PO (Evonik) were used as excipients. For carbamazepine, CarbothaneTM TPU P[…] was used as an elasticizer. For X-ray visualization, 15% weight ratio of BaSO4 was added. Various polymeric formulations were investigated for controlled release of the drugs. The in vitro drug release was also investigated by changing drug loading and the composition of excipients, as well as application of polymeric coating (using a solution of 5.4% PCL (w/v) and 0.6% EUDRAGIT® E PO (w/v) in acetone). […]

[2] = drug stability in simulated gastric fluid; type: physicochemical; settings: SGF pH 1.2, 37° C., 24 hour duration; HPLC-UV
Procedure: Given that the tested residence device is designed to reside in the stomach for an extended period, the drug stability was analyzed in simulated gastric fluid (0.2% w/v sodium chloride, and 0.7% w/v hydrochloric acid, adjusted to pH-1.2; referred to as SGF). Moxifloxacin was dissolved in SGF and placed at 37° C. At various times, part of the solution was aliquoted and stored at about −20° C. until further analysis. For carbamazepine, the drug was first dissolved in methanol and then diluted in SGF (at least 100-fold). At various times, part of the solution was collected and stored at −20° C. On completion of the study, drug concentration in the various aliquots was measured using high performance liquid chromatography-ultraviolet (HPLC-UV) analysis (High Performance Liquid Chromatography).

[3] = drug stability at elevated temperature; type: physicochemical; settings: 120° C., may be reached during manufacturing of the dosage form
Procedure: Additionally, drug stability was evaluated for an elevated temperature of 120° C. which may be reached during the manufacturing of the dosage form.

[4] = solubility in simulated gastric fluid; type: physicochemical
[5] = in vivo prolonged drug delivery, blood concentration versus time; parameters: species or system Yorkshire pigs; settings: pigs
Procedure: To evaluate the ability of residence devices loaded with the selected carbamazepine formulation to achieve gastric retention, the above described residence device was administered to a large animal model (three 35 to 50 kg Yorkshire pigs for each drug). Following overnight fasting and sedation of the animals, an overtube (US Endoscopy), with endoscopic guidance, was placed into the stomach to facilitate direct gastric delivery of the residence device. A residence devices folded into a cylindrical shape of length 20 cm and diameter of 12 mm (see the folded configuration in FIG. 1A) was administered via the overtube into the stomach of each pig, and the overtube was then removed. […] Serial radiographs were performed immediately afterwards and every 48-72 hours to monitor the integrity and transit of the devices as well as any radiographic evidence of bowel obstruction. In addition, animals were monitored clinically at least twice a day for any evidence of morbidity, including lethargy, inappetence, decreased fecal output, abdominal distension and vomiting. […] Endoscopic evaluation of the stomach over the course of the study was performed to further explore the stomach and ensure the absence of any ulceration or injury. Blood samples were taken at the following time points, 0 min (before administration of the dosage form), 5 min, 15 min, 30 min, 2 hours, 6 hours, daily for a minimum of 5 days, and then three times for the second week from peripheral veins under sedation.
One hundred microliters of each blood sample was spiked with 200 μl of 250 ng/mL internal standard (imipramine for carbamazepine) with acetonitrile added to elicit protein precipitation. Samples were vortexed, sonicated, and centrifuged prior to being pipetted into a well plate containing 200 μl of nanopure water. Finally, the samples were injected into an Ultra Performance Liquid Chromatography tandem mass spectrometry (UPLC-MS/MS) for analysis.

| Compound | increase in release of carbamazepine [1] | stability in SGF [2] | drug degradation at elevated temperature [3] | solubility in simulated gastric fluid (SGF) [4] | carbamazepine concentration versus time profile ([5]; 14 day residence time, UPLC-MS/MS) | area under the curve as compared to immediate release formulations ([5]; residence device) | maximum concentration as compared to immediate release formulations ([5]; residence device) | duration of drug delivery after a single administration ([5]; residence device, direct gastric delivery) |
| --- | --- | --- | --- | --- | --- | --- | --- | --- |
| NC(=O)N1c2ccccc2C=Cc2ccccc21 [carbamazepine] | greater than 3 fold | stable | no appreciable drug degradation | limited solubility | initial spike in concentration was observed in the first day followed by relatively uniform concentrations | enhanced area under the curve | lower maximum concentration | up to 14 days |
| COc1c(N2C[C@@H]3CCCN[C@@H]3C2)c(F)cc2c(=O)c(C(=O)O)cn(C3CC3)c12 [moxifloxacin] | – | stable | no appreciable drug degradation | – | – | – | – | – |
